Common to all, as to assay: Further analysis of a plurality of inhibitors and a plurality of kinases (Table 5 inhibition results)
What all share (type): biochemical
What all share (set-up): scale not given here

Test [1] addresses T1, kinases of Table 5 (Homo sapiens, UniProt O14965).
T1 sequence (O14965 1-403): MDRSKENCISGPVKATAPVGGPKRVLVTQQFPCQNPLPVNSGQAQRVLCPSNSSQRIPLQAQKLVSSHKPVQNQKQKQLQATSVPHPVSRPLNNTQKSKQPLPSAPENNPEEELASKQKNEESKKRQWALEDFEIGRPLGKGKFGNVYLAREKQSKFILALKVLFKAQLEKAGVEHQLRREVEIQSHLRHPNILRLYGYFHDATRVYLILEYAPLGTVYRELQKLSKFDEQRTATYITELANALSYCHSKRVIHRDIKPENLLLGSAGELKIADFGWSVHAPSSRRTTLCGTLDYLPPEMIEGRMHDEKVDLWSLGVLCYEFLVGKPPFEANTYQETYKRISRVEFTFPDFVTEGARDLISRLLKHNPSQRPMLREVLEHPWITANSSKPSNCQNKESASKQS
The following applies: kinase STK6 (Part I, plate C6, Domain 1). The source says:
(§1) The wash solution is then discarded.

The target of test [2] is T2, kinases of Table 5 (Homo sapiens, UniProt O43318).
T2 sequence (O43318 1-606): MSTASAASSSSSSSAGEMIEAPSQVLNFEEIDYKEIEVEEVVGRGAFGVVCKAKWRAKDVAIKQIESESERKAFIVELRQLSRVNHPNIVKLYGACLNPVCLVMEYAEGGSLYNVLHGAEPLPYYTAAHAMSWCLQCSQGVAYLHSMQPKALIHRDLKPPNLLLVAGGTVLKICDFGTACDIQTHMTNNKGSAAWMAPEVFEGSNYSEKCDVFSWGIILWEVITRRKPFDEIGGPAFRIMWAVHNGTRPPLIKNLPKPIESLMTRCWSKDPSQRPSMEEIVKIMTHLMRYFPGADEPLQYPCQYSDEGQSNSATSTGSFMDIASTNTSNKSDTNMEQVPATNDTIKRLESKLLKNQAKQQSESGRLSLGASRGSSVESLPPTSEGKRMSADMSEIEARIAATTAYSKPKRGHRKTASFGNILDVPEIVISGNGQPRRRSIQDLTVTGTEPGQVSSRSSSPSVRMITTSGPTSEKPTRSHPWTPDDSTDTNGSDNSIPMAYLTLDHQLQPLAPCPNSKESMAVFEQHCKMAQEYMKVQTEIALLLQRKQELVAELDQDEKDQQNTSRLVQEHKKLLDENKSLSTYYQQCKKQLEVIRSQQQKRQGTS
The following applies: kinase MAP3K7 (Part I, plate G9, Domain 0).
Excerpt: as §1

In test [3] the target is kinases of Table 5 (Homo sapiens, UniProt Q05655). Conditions: for Inhibition level: kinase PRKCD; for Inhibition Results (Level): kinase PRKCD (Part II, plate B2, Domain 0).
Excerpt: as §1

Test [4] has as its target T3, kinases of Table 5 (Homo sapiens, UniProt Q12866).
T3 sequence (Q12866 21-999): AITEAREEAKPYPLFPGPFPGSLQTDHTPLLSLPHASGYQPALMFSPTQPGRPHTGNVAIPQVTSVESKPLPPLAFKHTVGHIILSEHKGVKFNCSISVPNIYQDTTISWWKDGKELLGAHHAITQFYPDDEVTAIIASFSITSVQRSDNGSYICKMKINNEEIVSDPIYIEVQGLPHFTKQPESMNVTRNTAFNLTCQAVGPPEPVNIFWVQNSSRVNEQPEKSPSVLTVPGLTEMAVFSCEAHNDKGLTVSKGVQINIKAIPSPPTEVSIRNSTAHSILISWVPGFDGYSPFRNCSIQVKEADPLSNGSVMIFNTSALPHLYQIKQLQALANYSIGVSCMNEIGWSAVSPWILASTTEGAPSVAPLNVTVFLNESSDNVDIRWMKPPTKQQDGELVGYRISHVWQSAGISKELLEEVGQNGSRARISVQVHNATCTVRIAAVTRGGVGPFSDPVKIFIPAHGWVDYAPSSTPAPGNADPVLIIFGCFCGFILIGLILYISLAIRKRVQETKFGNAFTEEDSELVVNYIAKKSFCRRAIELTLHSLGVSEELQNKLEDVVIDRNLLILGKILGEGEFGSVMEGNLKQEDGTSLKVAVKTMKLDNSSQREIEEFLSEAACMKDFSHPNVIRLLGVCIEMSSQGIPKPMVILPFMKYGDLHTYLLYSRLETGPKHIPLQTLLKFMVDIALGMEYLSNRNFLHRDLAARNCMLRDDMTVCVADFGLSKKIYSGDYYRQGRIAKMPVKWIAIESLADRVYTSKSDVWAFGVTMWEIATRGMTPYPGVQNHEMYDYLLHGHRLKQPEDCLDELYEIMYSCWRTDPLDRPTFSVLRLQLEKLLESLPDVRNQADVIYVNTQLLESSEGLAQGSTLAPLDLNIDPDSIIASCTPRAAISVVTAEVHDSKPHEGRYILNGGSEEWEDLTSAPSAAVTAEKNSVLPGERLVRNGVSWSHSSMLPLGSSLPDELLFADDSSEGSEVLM
Conditions: inhibitor 100 uM; for Inhibition level: kinase MERTK; for Inhibition Results (Level): kinase MERTK (Part II, plate B11, Domain 1).
Excerpt: as §1

In test [5] the target is T4, kinases of Table 5 (Homo sapiens, UniProt Q99759).
T4 sequence (Q99759 1-626): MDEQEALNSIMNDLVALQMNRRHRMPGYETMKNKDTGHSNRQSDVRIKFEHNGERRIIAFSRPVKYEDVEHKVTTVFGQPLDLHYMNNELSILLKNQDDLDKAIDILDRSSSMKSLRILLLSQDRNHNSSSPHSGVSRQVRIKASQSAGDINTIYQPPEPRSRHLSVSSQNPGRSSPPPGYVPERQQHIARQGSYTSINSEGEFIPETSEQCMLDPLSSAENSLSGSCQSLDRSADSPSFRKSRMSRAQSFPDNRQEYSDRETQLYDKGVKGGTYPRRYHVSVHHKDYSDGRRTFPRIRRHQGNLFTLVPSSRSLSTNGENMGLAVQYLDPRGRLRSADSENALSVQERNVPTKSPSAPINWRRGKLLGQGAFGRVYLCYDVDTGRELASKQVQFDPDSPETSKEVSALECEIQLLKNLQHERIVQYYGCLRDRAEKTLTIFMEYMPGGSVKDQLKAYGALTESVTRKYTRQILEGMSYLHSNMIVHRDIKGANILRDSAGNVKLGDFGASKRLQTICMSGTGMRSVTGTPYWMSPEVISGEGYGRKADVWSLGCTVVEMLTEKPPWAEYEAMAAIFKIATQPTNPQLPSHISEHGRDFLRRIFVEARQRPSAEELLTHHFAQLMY
Conditions: kinase MAP3K3 (Part I, plate A1, Domain 0).
Excerpt: as §1

kinases of Table 5 (Homo sapiens, UniProt Q05655), sequence (Q05655 whole entry): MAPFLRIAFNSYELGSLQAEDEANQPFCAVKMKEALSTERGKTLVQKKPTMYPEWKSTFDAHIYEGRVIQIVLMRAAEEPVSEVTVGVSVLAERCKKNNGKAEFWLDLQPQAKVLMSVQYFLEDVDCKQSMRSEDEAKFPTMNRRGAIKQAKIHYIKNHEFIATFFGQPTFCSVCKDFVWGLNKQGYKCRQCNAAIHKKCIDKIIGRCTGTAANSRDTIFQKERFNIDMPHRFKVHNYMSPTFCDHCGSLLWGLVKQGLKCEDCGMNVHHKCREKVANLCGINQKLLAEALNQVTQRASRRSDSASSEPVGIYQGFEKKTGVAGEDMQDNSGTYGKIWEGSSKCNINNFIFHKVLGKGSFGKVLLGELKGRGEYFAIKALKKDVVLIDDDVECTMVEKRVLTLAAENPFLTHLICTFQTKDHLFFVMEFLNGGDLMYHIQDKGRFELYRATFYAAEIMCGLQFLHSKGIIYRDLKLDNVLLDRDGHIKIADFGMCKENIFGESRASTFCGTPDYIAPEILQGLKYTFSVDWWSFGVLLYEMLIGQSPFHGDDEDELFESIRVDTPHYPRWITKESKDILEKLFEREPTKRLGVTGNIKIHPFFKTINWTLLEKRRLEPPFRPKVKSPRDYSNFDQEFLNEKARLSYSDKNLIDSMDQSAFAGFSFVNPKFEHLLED

Take `O=c1c(-c2ccc(O)cc2)coc2cc(O)cc(O)c12` [Genistein]: the “Inhibition Results (Level)” value on kinases of Table 5 [1] (inhibitor 100 uM) is reported as 2; at kinases of Table 5 [1] (inhibitor <3.7 mM), 0; on kinases of Table 5 [2] (inhibitor 100 uM), 1; at kinases of Table 5 [2] (inhibitor <3.7 mM), 0; on kinases of Table 5 [5] (inhibitor 100 uM), 2; at kinases of Table 5 [5] (inhibitor <3.7 mM) it was 2. The values for the Inhibition level at kinases of Table 5 [3] (concentration not given), on kinases of Table 5 [3] (inhibitor 100 uM) and on kinases of Table 5 [4] were 0, 0 and 2, respectively.

`N#C/C(=C/c1ccc(O)c(O)c1)C(=O)NCc1ccccc1` [AG 490]: the “Inhibition Results (Level)” value is 2 at kinases of Table 5 [1] (inhibitor 100 uM), 0 on kinases of Table 5 [2] (inhibitor 100 uM) and 2 at kinases of Table 5 [5] (inhibitor 100 uM). Moreover, the Inhibition level amounted to 0 on kinases of Table 5 [3] (inhibitor 100 uM) and 2 on kinases of Table 5 [4].

Take `COc1cc2ncnc(Nc3cccc(Cl)c3)c2cc1OC` [AG 1478]: the “Inhibition Results (Level)” value on kinases of Table 5 [1] (inhibitor 100 uM) came to 0; at kinases of Table 5 [2] (inhibitor 100 uM) it was 0; on kinases of Table 5 [5] (inhibitor 100 uM), 2. The Inhibition level was 0 at kinases of Table 5 [3] (inhibitor 100 uM) and 2 on kinases of Table 5 [4].

As to `CC(=O)c1c(O)c(C)c(O)c(Cc2c(O)c3c(c(C(=O)/C=C/c4ccccc4)c2O)OC(C)(C)C=C3)c1O` [Rottlerin (Mallotoxin)], the “Inhibition Results (Level)” value on kinases of Table 5 [1] (inhibitor 100 uM) came out at 2; on kinases of Table 5 [2] (inhibitor 100 uM) it was 2; on kinases of Table 5 [3] (inhibitor 100 uM), 0; on kinases of Table 5 [4], 2; at kinases of Table 5 [5] (inhibitor 100 uM), 2.

Regarding `CN[C@@H]1C[C@H]2O[C@@](C)([C@@H]1OC)n1c3ccccc3c3c4c(c5c6ccccc6n2c5c31)C(=O)NC4` [Staurosporine], the “Inhibition Results (Level)” value came out at 0 on kinases of Table 5 [1] (inhibitor 21.5 uM) and 2 at kinases of Table 5 [5] (inhibitor 21.5 uM).

As to `O=S(=O)(NCCNC/C=C/c1ccc(Br)cc1)c1cccc2cnccc12` [H-89], the “Inhibition Results (Level)” value on kinases of Table 5 [1] (inhibitor 100 uM) is recorded as 0; at kinases of Table 5 [2] (inhibitor 100 uM), 2; at kinases of Table 5 [3] (inhibitor 100 uM), 1; on kinases of Table 5 [4], 2; at kinases of Table 5 [5] (inhibitor 100 uM), 2.

For `CC(C)(C)n1nc(-c2ccc(Cl)cc2)c2c(N)ncnc21` [PP2], the “Inhibition Results (Level)” value at kinases of Table 5 [1] (inhibitor 100 uM), at kinases of Table 5 [2] (inhibitor 100 uM) and on kinases of Table 5 [5] (inhibitor 100 uM) was 2 each time. Further, the values for the Inhibition level at kinases of Table 5 [3] (inhibitor 100 uM) and on kinases of Table 5 [4] were 0 and 2, respectively.

As to `O=c1c(O)c(-c2ccc(O)c(O)c2)oc2cc(O)cc(O)c12` [Quercetin], the “Inhibition Results (Level)” value was 0 at kinases of Table 5 [3] (inhibitor 100 uM), 1 at kinases of Table 5 [4] and 0 on kinases of Table 5 [5] (inhibitor 100 uM).

Turning to `Cn1cc(C2=C(c3cn(CCCSC(=N)N)c4ccccc34)C(=O)NC2=O)c2ccccc21` [Ro-31-8220], the “Inhibition Results (Level)” value stood at 0 at kinases of Table 5 [1] (inhibitor 90 uM); 2 at kinases of Table 5 [1] (inhibitor 100 uM); 2 on kinases of Table 5 [2] (inhibitor 90 uM); 2 at kinases of Table 5 [2] (inhibitor 100 uM); 2 at kinases of Table 5 [5] (inhibitor 90 uM); 0 on kinases of Table 5 [5] (inhibitor 100 uM). The figures for the Inhibition level at kinases of Table 5 [3] (concentration not given), at kinases of Table 5 [3] (inhibitor 100 uM) and on kinases of Table 5 [4] were 2, 0 and 2, respectively.

For the origin of these results see patent publication US20090099029A1, “Methods and substrates for conducting assays” (Invitrogen Corporation, priority 2005, published 2009).
